“Also recorded” adds a separate entry of the source.
Legend:
[1] = test system: CD45+ immune cells in the torsed testis; assay: Flow cytometry of CD45+ immune cell infiltrate in testis after testicular torsion; type: in vivo, CD1 mice; settings: varenicline 1 grm/kg i.p. 1 hour after onset of torsion; 48 hours after reperfusion; P≤0.0001
Description: (§1) Unilateral testicular torsion was induced in mature male CD1 mice by rotating the right testicle 720 degrees for 2 hours. Treatment with cytisine or varenicline was initiated one hour prior or one hour after the creation of testicular torsion. Testes were harvested 18 hours and 30 days following reperfusion. The acute inflammatory response was quantified with FACS analysis, […], reduced glutathione levels and quantification of the expression of IRI markers. Long term (30 day) outcomes were assessed by histologic evaluation, quantification of the expression of pro-fibrotic genes and measurement of testicular weight.
Mice underwent testicular torsion as previously described (Lysiak 2001). Briefly, mice were anesthetized with isoflurane over a heating pad. […]
Eighteen hours after reperfusion of the testis in the cytisine group and 48 hours after reperfusion in the varenicline group, bilateral testes were harvested, homogenized and digested with digestion solution containing 0.5% FBS, 20 mM HEPES, RPMI Medium, 0.057 U/ml DNase I, 1 mg/ml collagenase b. Cells were washed, counted with a hemocytometer and 1 million then diluted to 1 million cells per mL. […] For each sample 300,000 live cells were counted using BD FACSCalibur (BD Biosciences, San Jose, CA) and analyzed with FlowJo 9.0 software (TreeStar, Ashland, OR).

[2] = test system: NFKB targets (TLR4, NLRP3, Trim63, Fbxo32); assay: RT-PCR of downstream NFKB target genes after testicular torsion; type: in vivo, CD1 mice; settings: testis, 18 hours following testicular torsion
Description: (§2) Mice underwent testicular torsion as previously described (Lysiak 2001). Briefly, mice were anesthetized with isoflurane over a heating pad. The right testis was delivered through a low scrotal incision and rotated counterclockwise 720 degrees to induce ischemia for 2 hours. […] All animals were injected with long-acting buprenorphine (0.1 mg/kg) for long-term pain control prior to being recovered from anesthesia. Mice were euthanized either 18 hours or 30 days following torsion. Mice kept for 30 days after surgery were weighed on a weekly basis.
(§3) Cytisine (Sigma-Aldrich, St. Louis, MO) was administered intraperitoneally at a dose of 0.1 μg/gram either 1 hour before torsion or 1 hour after torsion (1 hour prior to detorsion). Varenicline ([…]) was administered as an intraperitoneal injection one hour after the onset of torsion and then continued every 12 hours for a total of 4 doses.
(§4) RNA was isolated from testis tissue using RNEasy mini kit (Qiagen, Hilden, Germany) using the manufacturer's protocol. RNA concentration was measured with Nanodrop 8000 (Thermo Scientific, Waltham, MA). cDNA was synthesized using Superscript First-Strand Synthesis system for RT-PCR (Invitrogen, Carlsbad, CA) on a GeneAmp PCR System 9700 (Applied Biosystems, Foster City, CA) Real-Real-time PCR was performed using QuantStudio 7 Flex (Applied Biosystems, Foster City, CA). Software Quantstudio Real-Time PCR Software (Thermo Fisher Scientific, Waltham, MA). TaqMan Gene Expression Assays (Applied Biosystems, Foster City, CA). Standard TaqMan primers were used for Col1, Col3, Vim, SMA.
NFKB signaling results in the upregulation of several downstream targets, which propagate the inflammatory cascade. To determine if varenicline administration reduced activation of the NFKB axis, quantitative PCR of established downstream NFKB targets was performed.

[3] = Testis weight vs contralateral testis 30 days after torsion (testicular atrophy); type: in vivo, CD1 mice; settings: drug given an hour after the onset of torsion; 30 days after reperfusion; vs untreated
Description: as §1, §2, §3
The degree of testicular atrophy was determined by comparing the weight of the torsed testis to the contralateral control testis 30 days after reperfusion.

[4] = Masson trichrome staining and ImageJ quantification of collagen in testis 30 days after torsion; type: in vivo, CD1 mice; settings: 30 days following torsion, vs untreated, cytisine p<0.01, varenicline p<0.0001
Description: as §2, §3
Testis tissue was harvested and stored in 70% ethanol. Fixation, embedding, sectioning, and staining were performed by the research pathology core at George Washington University. Sections were cut at a thickness of […]. Tissues were stained for H&E or Masson trichrome. Photographs were scanned at 20× resolution with Olympus VS120 virtual slide microscope system. TIF images were analyzed with ImageJ Fiji software as previously described (Caetano, Fronza et al. 2016). The color deconvolution plugin was used to perform ImageJ analysis on an area measuring 3000 square pixels. Automatic thresholding was performed. The amount of collagen in each area is expressed as the percentage of blue pixels in the image area taken as an average of 3 non-overlapping measurements.

[5] = test system: pro-fibrotic genes Col1, Col3, Vim, SMA; assay: RT-PCR of pro-fibrotic markers in testis 30 days after torsion; type: in vivo, CD1 mice; settings: for relative expression of collagen 1 (Col1) / relative expression of collagen 3 (Col3) / relative expression of smooth muscle actin (Sma) / relative expression of vimentin (Vim): 30 days following torsion, vs untreated
Description: as §2, §3, §4

[6] = Renal scar formation and trichrome collagen quantification after acute pyelonephritis; type: in vivo, C3H/HeOuJ mice
Description: To initiate pyelonephritis, the bladder was catheterized with a 24-gauge angiocatheter and a total volume of 100 μL of a phosphate-buffered saline containing […] colony forming units (CFU) of CFT073 uropathogenic Escherichia coli (UPEC) was then instilled.
Tissues were preserved in formalin for 72 hours then stored in ethanol. Sections were cut to a 5 μm thickness and stained with H&E or Masson trichrome. Photographs were obtained at 20× resolution with Olympus VS120 virtual slide microscope system. The images were then analyzed with ImageJ Fiji software in order to quantify collagen deposition as previously described (Chen 2017). As collagen deposition would be expected as long-term sequelae of IRI, the trichrome stains of the long-term specimen were examined. All artifacts from the staining process as well as gross collecting system were cropped from these images prior to analysis. A color deconvolution plugin was used to separate the trichrome images into the separate colors. Analysis was performed based upon the percentage of deposition of collagen in the green image compared to the overall area of the kidneys.
Tissues harvested 21 days following completion of antibiotic therapy were subjected to trichome staining to assess for global collagen deposition. After removing artifacts (to ensure only parenchyma was included in the analysis), a color deconvolution plugin was used for ImageJ to divide the images into the respective three colors of the trichrome stain. A threshold was set and collagen was quantified as a percentage of green color in respect to the area of the entire kidney (FIG. 13).

[7] = mice (Obach 2006); cited from earlier work

c1cnc2cc3c(cc2n1)C1CNCC3C1 [varenicline, 7,8,9, 10-tetrahydro-6, 10-methano-6H-pyrazino[2,3-h][3]benzazepine]
acute immune cell (leukocyte) infiltrate in testis [1]: decreased leukocyte infiltrate; also recorded: reduction in the acute immune cell infiltrate
expression of Fbxo32 ([2]; p<0.0001): significantly decreased the expression
expression of TLR4 ([2]; p<0.01): significantly decreased the expression
expression of NLRP3 ([2]; p<0.05): significantly decreased the expression
expression of Trim63 ([2]; p≤0.034): significantly decreased the expression
testicular atrophy (weight of torsed testis vs contralateral control testis) [3]: limited long term testicular atrophy; also recorded: preserved testicular weight
collagen content of testis (trichrome staining, percentage of collagen) [4]: untreated group had significantly higher collagen content; also recorded: decreased histologic and genetic markers of testicular fibrosis
collagen content of testis (trichrome staining, percentage of collagen) ([4]; listed as Varenicline): significantly higher percentage of collagen in the untreated animals
relative expression of collagen 1 (Col1) [5]: reduced the expression; also recorded: significantly decreased
relative expression of collagen 3 (Col3) [5]: reduced the expression; also recorded: significantly decreased
relative expression of smooth muscle actin (Sma) [5]: reduced the expression; also recorded: significantly decreased
relative expression of vimentin (Vim) [5]: reduced the expression; also recorded: significantly decreased
relative expression of collagen 1 (Col1) ([5]; listed as Varenicline): significantly decreased
relative expression of collagen 3 (Col3) ([5]; listed as Varenicline): significantly decreased
relative expression of smooth muscle actin (Sma) ([5]; listed as Varenicline): significantly decreased
relative expression of vimentin (Vim) ([5]; listed as Varenicline): significantly decreased
expression of pro-fibrotic genes / genetic markers of testicular fibrosis ([5]; long term (30 day) outcome, genes not itemised): decreased histologic and genetic markers of testicular fibrosis
collagen deposition in the kidneys (percentage of green pigment per area of entire kidney) ([6]; 21 days following completion of antibiotic therapy, varenicline plus ceftriaxone vs ceftriaxone alone, p=0.001): significantly lower amount of collagen deposition; also recorded: long-term decrease in collagen deposition
incidence of renal scar formation and renal atrophy ([6]; 30 days following acute pyelonephritis, preliminary results): decreased
half-life [7]: 1.4 h

— patent publication US12569498B2, “Methods and compositions for the prevention and treatment of ischemia reperfusion injury and infection” (CHILDREN'S NATIONAL MEDICAL CENTER, priority 2019, dated 2026)
